Laboratory results: PMC11729425 (ACS Pharmacology & Translational Science, 2024)

Tested on: human primary IBM cells
Assay: Aggresome detection (proteostat) in primary myoblasts from IBM patients
Format: cell-based
Conditions: 4 μM for 24 h
Experimental: Figure 4 1-deoxy-SL species accumulate in muscle and brain tissues during aging and contribute to cellular protein aggregation. (A,B) Heat map representing the abundance of sphingolipids in (A) gastrocnemius muscle and (B) brain with and without treatment with ALT-007 in mice (ALT-007 at 1 mg/kg; DMSO at equivalent volume for 20 weeks). N = 8 per group. Data are shown as log2 fold change. Adjusted P values are indicated as follows: *adjusted P < 0.05; **adjusted P < 0.01; ***adjusted P < 0.001. (C,D) Representative images and quantification of protein aggregates upon 1-deoxy-SA (C) and P053 treatment (D) in human primary IBM cells; both were administered at 4 μM for 24 h. N = 8 per group. (E) Analysis of 1-Deoxy-Spa and 1-DeoxyCer 24:1 levels in myoblasts from healthy and IBM patients. N = 3 per group. (C–E) Quantitative data are expressed as median with IQR and compared using the Mann–Whitney U test. All tests were 2 sided. *P < 0.05, **P < 0.01, ***P < 0.001.
Primary myoblasts from IBM patients and healthy aged matched donors were provided by Hospices Civils de Lyon. Cells were grown in DMEM/F-10 supplemented with 12% FBS (Gibco) and penicillin–streptomycin (1×, Gibco). Cells were cultured on sterilized coverslips in six-well plates (Greiner BioOne, CELLSTAR, 657160). […]

Question: Which “cellular protein aggregates (proteostat signal)” value does the source give for `CCCCCCCCCCCCCCC[C@@H](O)[C@H](C)N` [1-deoxy-SA, 1-deoxy-sphinganine] here?
Answer: The value was “significantly exacerbated the accumulation of cellular protein aggregates”.
